This passage reports MIC results from ChEMBL document CHEMBL5036302, “Amphiol, an Antifungal Fungal Pigment from Pseudogymnoascus sp. PF1464” (2021).

What all share (format): functional
One experiment relates to Staphylococcus aureus. Briefly: Antibacterial activity against Staphylococcus aureus assessed as inhibition of bacterial growth by CLSI protocol based microbroth dilution method.
The test system of another experiment is Candida albicans. Briefly: Antifungal activity against Candida albicans assessed as inhibition of fungal growth by CLSI protocol based microbroth dilution method.
The test system of the next experiment is Aspergillus fumigatus. Briefly: Antifungal activity against Aspergillus fumigatus assessed as inhibition of fungal growth by CLSI protocol based microbroth dilution method.
In experiment [1] the test system is Schizosaccharomyces pombe. Briefly: Antifungal activity against Schizosaccharomyces pombe assessed as inhibition of fungal growth by CLSI protocol based microbroth dilution method.
Another experiment has as its system Escherichia coli. Briefly: Antibacterial activity against Escherichia coli assessed as inhibition of bacterial growth by CLSI protocol based microbroth dilution method.

In brackets after ≈: the same amount, converted by molar mass. Some results are limits rather than exact numbers.

On to `CC(/C=C/C=C/C=C/C=C/C=C/C=C/c1cc(O)c([C@@H]2O[C@H](CO)[C@@H](O)[C@H](O)[C@H]2O)c(=O)o1)=C\[C@H](C)C(=O)[C@@H](C)C[C@@H](C)[C@H](C)O`, for which the MIC was over 64 µg/mL in the experiment on Staphylococcus aureus; 8 µg/mL (≈ 12.5 µM) with Candida albicans; 16 µg/mL (≈ 25 µM) in the experiment with Aspergillus fumigatus; 0.8 µg/mL (≈ 1.25 µM) in experiment [1]; over 64 µg/mL in the experiment on Escherichia coli.

As to `C[C@@H]1[C@H](O)[C@@H](C)/C=C/C=C/C=C/C=C/C=C/C=C/C=C/[C@H](O[C@@H]2O[C@H](C)[C@@H](O)[C@H](N)[C@@H]2O)C[C@@H]2O[C@](O)(C[C@@H](O)C[C@@H](O)[C@H](O)CC[C@@H](O)C[C@@H](O)CC(=O)O[C@H]1C)C[C@H](O)[C@H]2C(=O)O` [AMPHOTERICIN B], the MIC in experiment [1] was determined as 0.13 µg/mL (≈ 0.141 µM).
